From patent US7524964B2, “Tetrahydrothiopyrano pyrazole cannabinoid modulators” (Janssen Pharmaceutica NV, priority 2005, dated 2009)
Read-outs that look alike come from different tables or passages of the source.

How the values were obtained:
human CB-2 receptor = target: T1, human CB-2 receptor (Homo sapiens, UniProt P34972); test: Binding assay, cannabinoid CB2 receptor ([3H]-CP-55,940 displacement); settings: read-out: CB2 binding percent inhibition
T1 construct: expressed in transfected cells; host or cells: SK-N-MC cells, pcDNA3 CB-2 (human), semi-purified membranes
T1 sequence (P34972 whole entry): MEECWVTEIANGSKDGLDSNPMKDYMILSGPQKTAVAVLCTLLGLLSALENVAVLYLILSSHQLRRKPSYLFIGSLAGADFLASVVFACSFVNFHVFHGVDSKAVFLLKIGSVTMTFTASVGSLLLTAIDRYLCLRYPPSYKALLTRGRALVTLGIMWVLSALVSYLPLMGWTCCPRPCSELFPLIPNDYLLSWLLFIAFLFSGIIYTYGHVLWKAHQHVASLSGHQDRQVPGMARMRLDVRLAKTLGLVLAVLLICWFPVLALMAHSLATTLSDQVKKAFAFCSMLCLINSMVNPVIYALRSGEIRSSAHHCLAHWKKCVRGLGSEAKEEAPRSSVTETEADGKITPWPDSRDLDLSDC
Outline: (§1)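 Membranes from SK-N-MC cells stably expressing human CB-1 or CB-2 were incubated 90 min at 30° C with 0.2 nM [3H]-CP-55,940 in pH 7.5 Tris buffer with fatty-acid-free BSA; 10 uM WIN 55,212 defined non-specific binding. Filter-bound counts gave IC50 by linear regression, or percent inhibition at 0.2, 1 or 10 μM.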

human CB1 receptor = human CB1 receptor (Homo sapiens, UniProt P21554); test: Binding assay, cannabinoid CB1 receptor ([3H]-CP-55,940 displacement); parameters: expressed in transfected cells; host or cells: SK-N-MC cells, pcDNA3 CB-1 (human), semi-purified membranes; settings: for inhibition at 0.2 µM: test concentration 0.2 μM (superscript a)
Sequence of human CB1 receptor (P21554 whole entry): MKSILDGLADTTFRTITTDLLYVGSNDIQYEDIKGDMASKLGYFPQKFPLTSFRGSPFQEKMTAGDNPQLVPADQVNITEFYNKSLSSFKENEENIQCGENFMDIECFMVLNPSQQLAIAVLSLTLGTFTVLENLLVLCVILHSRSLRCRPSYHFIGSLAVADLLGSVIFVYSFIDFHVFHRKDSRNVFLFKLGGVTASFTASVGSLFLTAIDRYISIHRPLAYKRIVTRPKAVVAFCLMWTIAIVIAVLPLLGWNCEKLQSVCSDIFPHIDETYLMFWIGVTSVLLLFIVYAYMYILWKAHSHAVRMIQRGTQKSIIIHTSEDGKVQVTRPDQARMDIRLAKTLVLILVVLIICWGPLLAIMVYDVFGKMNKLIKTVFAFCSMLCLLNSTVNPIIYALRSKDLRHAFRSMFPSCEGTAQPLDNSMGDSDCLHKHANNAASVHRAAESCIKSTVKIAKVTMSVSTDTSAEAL
Outline: as §1

[1] = test concentration 0.2 μM (superscript a)
[2] = read-out: CB1 binding percent inhibition

Row | Compound | inhibition at 0.2 µM (human CB-2 receptor; [1]) | IC50 (human CB1 receptor) | inhibition at 0.2 µM (human CB1 receptor; [2]) | further results
1 | O=C(N[C@H]1c2ccccc2C[C@H]1O)c1nn(-c2ccc(Cl)cc2Cl)c2c1CS(=O)(=O)C/C2=C\c1ccc(F)cc1 [Cpd 70, (7Z)-1-(2,4-dichloro-phenyl)-7-(4-fluoro-benzylidene)-5,5-dioxo-4,5,6,7-tetrahydro-1H-5λ^6-thiopyrano[4,3-c]pyrazole-3-carboxylic acid [(1S,2R)-2-hydroxy-indan-1-yl]-amide] | 19% | 12 nM | – | –
2 | O=C(c1nn(-c2ccc(Cl)cc2Cl)c2c1CSC/C2=C\c1ccc(F)cc1)N1CCCC1 [Cpd 57, (7Z)-[1-(2,4-dichloro-phenyl)-7-(4-fluoro-benzylidene)-1,4,6,7-tetrahydro-thiopyrano[4,3-c]pyrazol-3-yl]-pyrrolidin-1-yl-methanone] | 21% | – | 56% | –
3 | O=C(NNc1ccc(Cl)cc1Cl)c1nn(-c2ccc(Cl)cc2Cl)c2c1CSC/C2=C\c1ccc(F)cc1 [Cpd 52, (7Z)-1-(2,4-dichloro-phenyl)-7-(4-fluoro-benzylidene)-1,4,6,7-tetrahydro-thiopyrano[4,3-c]pyrazole-3-carboxylic acid N′-(2,4-dichloro-phenyl)-hydrazide] | 28% | – | 66% | –
4 | C[C@@H](NC(=O)c1nn(-c2ccc(Cl)cc2Cl)c2c1CSC/C2=C\c1ccc(F)cc1)c1ccccn1 [Cpd 127, (7Z)-1-(2,4-dichloro-phenyl)-7-(4-fluoro-benzylidene)-1,4,6,7-tetrahydro-thiopyrano[4,3-c]pyrazole-3-carboxylic acid [(1R)-1-(pyridin-2-yl)-ethyl]-amide] | – | 7 nM | – | inhibition at 0.2 µM (human CB-2 receptor): 19%
5 | C[C@H](NS(=O)(=O)/C=C/c1nn(-c2ccc(F)cc2F)c2c1CSCC2Cc1cccc(F)c1)c1ccccc1 (stereo partly drawn) [Cpd 38, (E)-2-[1-(2,4-difluoro-phenyl)-7-(3-fluoro-benzyl)-1,4,6,7-tetrahydro-thiopyrano[4,3-c]pyrazol-3-yl]-ethenesulfonic acid [(1S)-1-phenyl-ethyl]-amide] | 15% | – | 28% | –
6 | O=C(NN1CCCCC1)c1c2c(nn1-c1ccc(Cl)cc1Cl)/C(=C/c1ccc(F)cc1)CS(=O)(=O)C2 [Cpd 83, (7Z)-2-(2,4-dichloro-phenyl)-7-(4-fluoro-benzylidene)-5,5-dioxo-4,5,6,7-tetrahydro-2H-5λ^6-thiopyrano[4,3-c]pyrazole-3-carboxylic acid piperidin-1-ylamide] | 17% | 27 nM | – | –
7 | C[C@@H](NS(=O)(=O)/C=C/c1nn(-c2ccc(F)cc2F)c2c1CSCC2Cc1cccc(F)c1)C1CCCCC1 (stereo partly drawn) [Cpd 39, (E)-2-[1-(2,4-difluoro-phenyl)-7-(3-fluoro-benzyl)-1,4,6,7-tetrahydro-thiopyrano[4,3-c]pyrazol-3-yl]-ethenesulfonic acid [(1R)-1-cyclohexyl-ethyl]-amide] | 37% | – | 55% | –
8 | O=C(NN1CC2CCCC2C1)c1nn(-c2ccc(F)cc2F)c2c1CS(=O)(=O)C/C2=C\c1ccc(F)cc1 (stereo not shown) [Cpd 105, (7Z)-1-(2,4-difluoro-phenyl)-7-(4-fluoro-benzylidene)-5,5-dioxo-4,5,6,7-tetrahydro-1H-5λ^6-thiopyrano[4,3-c]pyrazole-3-carboxylic acid (hexahydro-cyclopenta[c]pyrrol-2-yl)-amide] | 11% | – | 50% | –
9 | C[C@@H](NS(=O)(=O)/C=C/c1nn(Cc2ccccc2)c2c1CSCC2)C1CCCCC1 [Cpd 11, (E)-2-(1-benzyl-1,4,6,7-tetrahydro-thiopyrano[4,3-c]pyrazol-3-yl)-ethenesulfonic acid [(1R)-1-cyclohexyl-ethyl]-amide] | – | – | – | inhibition at 1 µM (human CB-2 receptor; test concentration 1 μM (superscript b)): 39%; inhibition at 1 µM (human CB1 receptor; test concentration 1 μM (superscript b), read-out: CB1 binding percent inhibition): 29%
10 | C[C@H](NC(=O)c1c2c(nn1-c1ccc(Cl)cc1Cl)/C(=C/c1ccc(F)cc1)CS(=O)(=O)C2)c1ccccc1 [Cpd 86, (7Z)-2-(2,4-dichloro-phenyl)-7-(4-fluoro-benzylidene)-5,5-dioxo-4,5,6,7-tetrahydro-2H-5λ^6-thiopyrano[4,3-c]pyrazole-3-carboxylic acid [(1S)-1-phenyl-ethyl]-amide] | 14% | 21 nM | – | –
11 | O=C(NN1CCCC1)c1nn(-c2ccc(Cl)cc2Cl)c2c1CSC/C2=C\c1ccc(F)cc1 [Cpd 56, (7Z)-1-(2,4-dichloro-phenyl)-7-(4-fluoro-benzylidene)-1,4,6,7-tetrahydro-thiopyrano[4,3-c]pyrazole-3-carboxylic acid pyrrolidin-1-ylamide] | 15% | 35 nM | – | –
12 | C[C@H](NS(=O)(=O)/C=C/c1nn(-c2ccc(Cl)cc2Cl)c2c1CSCC2Cc1cccc(Cl)c1)c1ccccc1 (stereo partly drawn) [Cpd 46, (E)-2-[7-(3-chloro-benzyl)-1-(2,4-dichloro-phenyl)-1,4,6,7-tetrahydro-thiopyrano[4,3-c]pyrazol-3-yl]-ethenesulfonic acid [(1S)-1-phenyl-ethyl]-amide] | 18% | – | 43% | –
13 | O=C(NNC1CCCCC1)c1nn(-c2ccc(Cl)cc2Cl)c2c1CSC/C2=C\c1ccc(F)cc1 [Cpd 115, (7Z)-1-(2,4-dichloro-phenyl)-7-(4-fluoro-benzylidene)-1,4,6,7-tetrahydro-thiopyrano[4,3-c]pyrazole-3-carboxylic acid N′-cyclohexyl-hydrazide] | 19% | 79 nM | – | –
14 | O=C(NN1CC2CCCC2C1)c1nn(-c2ccc(Cl)cc2)c2c1CS(=O)(=O)C/C2=C\c1ccc(F)cc1 (stereo not shown) [Cpd 97, (7Z)-1-(4-chloro-phenyl)-7-(4-fluoro-benzylidene)-5,5-dioxo-4,5,6,7-tetrahydro-1H-5λ^6-thiopyrano[4,3-c]pyrazole-3-carboxylic acid (hexahydro-cyclopenta[c]pyrrol-2-yl)-amide] | 8% | 68 nM | – | –
15 | O=C(N[C@@H]1c2ccccc2C[C@@H]1O)c1nn(-c2ccc(Cl)cc2Cl)c2c1CSC/C2=C\c1ccc(F)cc1 [Cpd 58, (7Z)-1-(2,4-dichloro-phenyl)-7-(4-fluoro-benzylidene)-1,4,6,7-tetrahydro-thiopyrano[4,3-c]pyrazole-3-carboxylic acid [(1R,2S)-2-hydroxy-indan-1-yl]-amide] | – | 40 nM | – | inhibition at 0.2 µM (human CB-2 receptor): 25%
16 | O=C(NNc1ccc(Cl)cc1Cl)c1nn(-c2ccc(Cl)cc2Cl)c2c1CS(=O)(=O)C/C2=C\c1ccc(F)cc1 [Cpd 53, (7Z)-1-(2,4-dichloro-phenyl)-7-(4-fluoro-benzylidene)-5,5-dioxo-4,5,6,7-tetrahydro-1H-5λ^6-thiopyrano[4,3-c]pyrazole-3-carboxylic acid N′-(2,4-dichloro-phenyl)-hydrazide] | 30% | – | 55% | –
17 | O=C(NN1CCCCCC1)c1nn(-c2ccc(Cl)cc2Cl)c2c1CS(=O)(=O)C/C2=C\c1ccc(F)cc1 [Cpd 107, (7Z)-1-(2,4-dichloro-phenyl)-7-(4-fluoro-benzylidene)-5,5-dioxo-4,5,6,7-tetrahydro-1H-5λ^6-thiopyrano[4,3-c]pyrazole-3-carboxylic acid azepan-1-ylamide] | 23% | – | 92% | –
18 | C[C@H](NC(=O)c1c2c(nn1-c1ccc(Cl)cc1Cl)/C(=C/c1ccc(F)cc1)CS(=O)(=O)C2)C1CCCCC1 [Cpd 85, (7Z)-2-(2,4-dichloro-phenyl)-7-(4-fluoro-benzylidene)-5,5-dioxo-4,5,6,7-tetrahydro-2H-5λ^6-thiopyrano[4,3-c]pyrazole-3-carboxylic acid [(1S)-1-cyclohexyl-ethyl]-amide] | 20% | 35 nM | – | –
19 | CN1CCN(NC(=O)c2nn(-c3ccc(Cl)cc3Cl)c3c2CSC/C3=C\c2ccc(F)cc2)CC1 [Cpd 113, (7Z)-1-(2,4-dichloro-phenyl)-7-(4-fluoro-benzylidene)-1,4,6,7-tetrahydro-thiopyrano[4,3-c]pyrazole-3-carboxylic acid (4-methyl-piperazin-1-yl)-amide] | 0% | – | 17% | –
20 | O=C(N[C@@H]1c2ccccc2C[C@@H]1O)c1nn(-c2ccc(Cl)cc2Cl)c2c1CS(=O)(=O)C/C2=C\c1ccc(F)cc1 [Cpd 69, (7Z)-1-(2,4-dichloro-phenyl)-7-(4-fluoro-benzylidene)-5,5-dioxo-4,5,6,7-tetrahydro-1H-5λ^6-thiopyrano[4,3-c]pyrazole-3-carboxylic acid [(1R,2S)-2-hydroxy-indan-1-yl]-amide] | 10% | 23 nM | – | –
21 | O=C(c1nn(-c2ccc(Cl)cc2Cl)c2c1CSC/C2=C\c1ccc(F)cc1)N1CCCCC1 [Cpd 55, (7Z)-[1-(2,4-dichloro-phenyl)-7-(4-fluoro-benzylidene)-1,4,6,7-tetrahydro-thiopyrano[4,3-c]pyrazol-3-yl]-piperidin-1-yl-methanone] | 10% | – | 52% | –
22 | C[C@@H](NC(=O)c1nn(-c2ccc(Cl)cc2Cl)c2c1CSC/C2=C\c1ccc(Br)cc1)c1ccccc1 [Cpd 129, (7Z)-(4-Bromo-benzylidene)-1-(2,4-dichloro-phenyl)-1,4,6,7-tetrahydro-thiopyrano[4,3-c]pyrazole-3-carboxylic acid [(1R)-1-phenyl-ethyl]-amide] | – | 6 nM | – | inhibition at 0.2 µM (human CB-2 receptor): 26%
23 | CC(C)(C)OC(=O)N1CCN(NC(=O)c2nn(-c3ccc(Cl)cc3Cl)c3c2CSC/C3=C\c2ccc(F)cc2)CC1 [Cpd 64, 4-{[(7Z)-1-(2,4-dichloro-phenyl)-7-(4-fluoro-benzylidene)-1,4,6,7-tetrahydro-thiopyrano[4,3-c]pyrazole-3-carbonyl]-amino}-piperazine-1-carboxylic acid tert-butyl ester] | – | 24 nM | – | inhibition at 0.2 µM (human CB-2 receptor): 0%
